Assay [1] has as its system 330 non-olfactory GPCRs. The assay can be described thus: PRESTO-Tango GPCRome β-arrestin recruitment off-target screen. Format: cell-based. Particulars: 3 μM, follow-up concentration–response. The procedure:
To identify potential off-target activity of MP1207, we used the National Institutes of Mental Health Psychoactive Drug Screen Program. MP1207 was first tested for activity against 330 non-olfactory GPCRs using the PRESTO-Tango GPCRome screening β-arrestin recruitment assay at 3 μM MP1207. The activity at each receptor was measured in quadruplicate.
Screening of compounds was accomplished using previously described methods with several modifications ([Kroeze et al., 2015]). First, HTLA cells were plated in DMEM with 2% dialyzed FBS and 10 U/mL penicillin-streptomycin. Next, the cells were transfected using an in-plate PEI method ([Longo et al., 2013]). PRESTO-Tango receptor DNAs were resuspended in OptiMEM and hybridized with PEI prior to dilution and distribution into 384-well plates and subsequent addition to cells. After overnight incubation, drugs diluted in DMEM with 1% dialyzed FBS were added to cells without replacement of the medium. The remaining steps of the PRESTO-Tango protocol were followed as previously described.
Appendix 1—figure 6. […] MP1207 was screened against 330 non-olfactory GPCRs for agonism in the arrestin recruitment TANGO assay. […] MP1207 induces an increase in signal twofold over basal at opioid receptors predominantly at KOR and DOR and much less at MOR.
(Arrestin recruitment assays detect the binding of arrestin to an activated receptor.)

Assay [2] deals with all screened targets except SERT and α2C-adrenoreceptors. The assay can be described thus: Radioligand binding counter-screen (NIMH PDSP), remaining targets. Particulars: non-opioid targets. In general terms: A counterscreen serves to expose hits that act by an unwanted route or on another target.
Assay [3] deals with mDOR (Mus musculus, UniProt P32300). The conditions noted are these: binding assays.
For assay [4], the target named is T1, rKOR (Rattus norvegicus, UniProt P34975). Particulars: BRET, rodent receptors. For orientation: BRET reads energy transfer from a luciferase to a nearby fluorophore.
Assay [5] has as its target KOR (Homo sapiens, UniProt P41145). The assay is described as follows: cell-based.
Assay [6] concerns the target T2, DOR (Homo sapiens, UniProt P41143). The assay can be described thus: cell-based.
Assay [7] addresses Y312W-hKOR (Homo sapiens, UniProt P41145, Y312W). The assay can be described thus: cell-based.
The target of assay [8] is T2, DOR. The assay can be described thus: cell-based. The source holds these as a separate data set.
The target of assay [9] is T3, mMOR (Mus musculus, UniProt P42866). The assay can be described thus: cell-based.
In assay [10] the target is T1, rKOR. The assay is described as follows: cell-based.
In assay [11] the target is T3, mMOR. The assay is described as follows: biochemical.
Assay [12] concerns the target mKOR (Mus musculus, UniProt P33534). The assay can be described thus: biochemical.
For assay [13], the target named is T3, mMOR. The assay is described as follows: cell-based. Details: expressed in transfected cells; host or cells: HEK-293T.

Where “and” joins values, the source holds several entries; their conditions need not be identical. Equal values may be shown once. Entries after “also recorded” stand apart in the source; their conditions may differ. Read-outs that look alike come from different tables or passages of the source.

For orientation: Ki means a dissociation constant, usually derived from enzyme kinetics or from competition with a known ligand. A higher Ki goes with lower affinity. As a reminder, the EC50 is the concentration that produces a half-maximal response. Higher therefore signals lower potency in that assay. By Emax is commonly meant the maximal effect, on the per cent scale that the assay sets.

Chain of mKOR (P33534 whole entry): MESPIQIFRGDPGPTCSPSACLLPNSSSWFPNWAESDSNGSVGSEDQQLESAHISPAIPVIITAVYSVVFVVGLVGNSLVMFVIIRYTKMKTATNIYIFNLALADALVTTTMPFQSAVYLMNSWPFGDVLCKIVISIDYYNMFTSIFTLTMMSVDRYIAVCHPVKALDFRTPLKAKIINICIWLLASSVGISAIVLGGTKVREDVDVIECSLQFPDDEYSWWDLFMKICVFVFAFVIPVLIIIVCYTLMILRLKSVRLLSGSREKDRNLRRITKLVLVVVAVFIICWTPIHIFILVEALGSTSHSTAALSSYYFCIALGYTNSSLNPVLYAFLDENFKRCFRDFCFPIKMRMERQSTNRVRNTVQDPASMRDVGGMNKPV
T2 sequence (P41143 whole entry): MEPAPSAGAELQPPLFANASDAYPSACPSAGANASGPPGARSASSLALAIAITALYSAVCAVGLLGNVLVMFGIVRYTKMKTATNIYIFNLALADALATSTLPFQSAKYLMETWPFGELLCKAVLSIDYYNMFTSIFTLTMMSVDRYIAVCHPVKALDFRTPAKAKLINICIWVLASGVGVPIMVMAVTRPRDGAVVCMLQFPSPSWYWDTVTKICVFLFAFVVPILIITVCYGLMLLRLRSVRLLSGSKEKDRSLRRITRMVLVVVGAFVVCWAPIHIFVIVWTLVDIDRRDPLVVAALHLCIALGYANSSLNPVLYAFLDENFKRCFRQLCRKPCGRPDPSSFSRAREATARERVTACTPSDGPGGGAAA
T1 sequence (P34975 whole entry): as the sequence (P33534 whole entry) above, with D11E, S17A, S51P, A308V counted along it
Chain of KOR (P41145 whole entry): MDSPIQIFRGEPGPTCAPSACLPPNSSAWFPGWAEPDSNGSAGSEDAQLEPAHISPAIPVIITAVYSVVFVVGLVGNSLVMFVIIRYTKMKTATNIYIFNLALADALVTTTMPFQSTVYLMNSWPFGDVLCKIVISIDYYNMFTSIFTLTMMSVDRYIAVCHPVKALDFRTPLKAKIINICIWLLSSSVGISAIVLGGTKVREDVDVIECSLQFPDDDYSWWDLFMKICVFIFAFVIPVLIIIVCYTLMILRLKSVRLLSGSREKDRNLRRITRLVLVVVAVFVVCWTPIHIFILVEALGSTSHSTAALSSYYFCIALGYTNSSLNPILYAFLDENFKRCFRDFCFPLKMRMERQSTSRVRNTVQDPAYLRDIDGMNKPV
T3 sequence (P42866 whole entry): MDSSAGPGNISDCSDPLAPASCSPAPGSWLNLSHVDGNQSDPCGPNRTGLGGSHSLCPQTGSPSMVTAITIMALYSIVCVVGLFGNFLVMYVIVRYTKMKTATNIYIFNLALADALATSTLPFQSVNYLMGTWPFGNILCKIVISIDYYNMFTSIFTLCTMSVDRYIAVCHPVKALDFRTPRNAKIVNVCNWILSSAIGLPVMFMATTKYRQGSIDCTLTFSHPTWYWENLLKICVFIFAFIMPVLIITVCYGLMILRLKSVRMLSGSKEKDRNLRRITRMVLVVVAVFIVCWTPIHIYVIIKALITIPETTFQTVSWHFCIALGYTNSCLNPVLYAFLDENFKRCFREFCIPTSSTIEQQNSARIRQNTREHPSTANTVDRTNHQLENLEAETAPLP
Chain of Y312W-hKOR (P41145 whole entry Y312W): as the sequence (P41145 whole entry) above, with Y312W counted along it
Chain of mDOR (P32300 whole entry): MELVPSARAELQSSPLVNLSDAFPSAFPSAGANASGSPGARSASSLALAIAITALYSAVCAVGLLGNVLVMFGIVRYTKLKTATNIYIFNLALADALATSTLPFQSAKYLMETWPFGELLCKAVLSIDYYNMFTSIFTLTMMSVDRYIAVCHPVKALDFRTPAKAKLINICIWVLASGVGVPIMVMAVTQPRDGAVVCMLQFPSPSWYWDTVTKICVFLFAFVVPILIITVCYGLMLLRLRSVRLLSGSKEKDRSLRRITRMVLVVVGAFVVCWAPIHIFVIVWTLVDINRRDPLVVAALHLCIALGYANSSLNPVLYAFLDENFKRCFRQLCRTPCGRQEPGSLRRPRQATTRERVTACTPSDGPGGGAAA

Turning to `NCc1cccc(C(=O)N[C@@H]2CCC3C4Cc5ccc(O)c6c5[C@@]3(CCN4CC3CC3)C2O6)c1` (stereo partly drawn) [MP1207, 3-(Aminomethyl)-N-((7R,12bS)−3-(cyclopropylmethyl)−9-hydroxy-2,3,4,4a,5,6,7,7a-octahydro-1H-4,12-methanobenzofuro[3,2-e]isoquinolin-7-yl)benzamide], in [1], the “agonism at 330 non-olfactory GPCRs (in words)” value is given as “selective for opioid receptors; also recorded: no potent activity was confirmed”. Besides, in assay [2], the Ki is over 10000 nM. Besides, in assay [3], the “selectivity for MOR and KOR over DOR” value is listed as “more than 40 fold”. For the same compound, the “arrestin recruitment at rKOR (in words)” value in assay [4] is given as “No recruitment of βarrestin-2”. The EC50 in assay [5] (EC50 cAMP inhibition hKOR) was 0.11 nM; in assay [5] (pEC50 cAMP inhibition hKOR, ± SEM), 0.105 nM; in assay [6] (EC50 cAMP inhibition hDOR), 11.4 nM; in assay [7], 0.16 nM; in assay [8] (EC50 arrestin recruitment hDOR, Tango) it was 64.1 nM; in [9] (EC50 G protein activation (BRET) mMOR), 3.61 nM. The EC50 in assay [10] was 1.13 nM; in assay [11] (EC50 mMOR [35S]GTPγS, ± SEM), 1.3 nM and 1.29 nM; in [12] (EC50 mKOR [35S]GTPγS, ± SEM), 1.5 nM and 1.52 nM. Also, the Emax in assay [5] (HEK-293T, read-out: Emax% cAMP inhibition hKOR) is 90 ± 1.7%; in assay [6] (HEK-293T, read-out: Emax% cAMP inhibition hDOR), 38 ± 2%; in assay [7] (read-out: Emax% cAMP inhibition Y312W-hKOR) it was 95 ± 1.8%; in [8] (HTLA, read-out: Emax% arrestin recruitment hDOR), 34 ± 3.7%; in assay [9] (HEK-293T, read-out: Emax% G protein activation (BRET) mMOR), 42 ± 2.6%; in assay [10] (HEK-293T, read-out: Emax% G protein activation (BRET) rKOR), 32 ± 2.3%. For the same compound, the Emax in [11] (read-out: Emax mMOR [35S]GTPγS) was 41 ± 1%; in assay [12] (read-out: Emax mKOR [35S]GTPγS), 39.3 ± 1.3%. Moreover, the “arrestin recruitment at mMOR (in words)” value in assay [13] is “No recruitment of βarrestin-2”.

Values taken from article PMC7909954 (eLife, 2021).
